Active and inactive are the calls of the source. No cut-off for these calls is given here.

For series [1], the system named is Jurkat. The experiment in a line: Induction of cell proliferation in human Jurkat T cells co-cultured with MDA-MB-231 cells assessed as increase in cell viability at < 5 uM after 48 hrs by CFSE staining based flow cytometric analysis. Type of series: functional. In general terms: In flow cytometry, cells or beads pass a laser one at a time.
Series [2] concerns Jurkat. The experiment in a line: Induction of anti-CD3/CD28 antibodies-stimulated human Jurkat T cell activation co-cultured with MDA-MB-231 cells assessed as increase IFN-gamma protein expression in CD8+ cells in presence of PMA and ionomycin at 5 uM after 48 hrs by flow cytometric analysis. In kind it is functional, cell-based.
For series [3], the system named is Jurkat. As to the kind of experiment: Induction of anti-CD3/CD28 antibodies-stimulated human Jurkat T cell activation co-cultured with MDA-MB-231 cells assessed as increase granzyme B protein expression in CD8+ cells at 5 uM after 48 hrs by flow cytometric analysis. In kind it is functional, cell-based.
The test system of series [4] is Jurkat. The experiment in a line: Induction of anti-CD3/CD28 antibodies-stimulated human Jurkat T cell activation co-cultured with MDA-MB-231 cells assessed as increase TNFalpha protein expression in CD8+ cells at 5 uM in presence of PMA and ionomycin after 48 hrs by flow cytometric analysis. In kind it is functional, cell-based.
For series [5], the system named is Jurkat. The experiment in a line: Induction of anti-CD3/CD28 antibodies-stimulated human Jurkat T cell activation co-cultured with MDA-MB-231 cells assessed as increase TNFalpha protein expression in CD8+ cells at 5 uM after 48 hrs by flow cytometric analysis. Type of series: functional, cell-based.
Series [6] deals with Jurkat. The experiment in a line: Cytotoxicity against human Jurkat T cells co-cultured with MDA-MB-231 cells assessed as reduction in cell viability at 50 uM after 48 hrs by CFSE staining based flow cytometric analysis. In kind it is toxicity.
Series [7] deals with Jurkat. As to the kind of experiment: Induction of anti-CD3/CD28 antibodies-stimulated human Jurkat T cell activation co-cultured with MDA-MB-231 cells assessed as increase IFN-gamma protein expression in CD8+ cells at 5 uM after 48 hrs by flow cytometric analysis. Type of series: functional, cell-based.
Series [8] deals with Jurkat. The experiment in a line: Induction of anti-CD3/CD28 antibodies-stimulated human Jurkat T cell activation co-cultured with MDA-MB-231 cells assessed as increase granzyme B protein expression in CD8+ cells at 5 uM in presence of PMA and ionomycin after 48 hrs by flow cytometric analysis. Type of series: functional, cell-based.
Series [9] can be described thus: Cytotoxicity against T cell (unknown origin). In kind it is toxicity, cell-based, Homo sapiens. The settings on record: T cells.
Series [10] deals with MC-38. As to the kind of experiment: Antitumour activity against mouse MC38 cells implanted in C57BL6 mouse assessed reduction in tumor size at 25 mg/kg, IG for 16 days. Type of series: functional, organism-based. To be noted: time 16.0 day.
In series [11] the test system is Jurkat. The experiment in a line: Cytotoxicity against human Jurkat T cells co-cultured with MDA-MB-231 cells assessed as reduction in cell viability at 5 to 10 uM after 48 hrs by CFSE staining based flow cytometric analysis. The settings on record: dose 5-10 µM. Type of series: toxicity.
Series [12] concerns MC-38. As to the kind of experiment: Antitumour activity against mouse MC38 cells implanted in C57BL6 mouse assessed reduction in tumor weight at 25 mg/kg, IG for 16 days. In kind it is functional, organism-based. To be noted: time 16.0 day.
Series [13] relates to MC-38. As to the kind of experiment: Antitumour activity against mouse MC38 cells implanted in C57BL6 mouse assessed increase in CD4+CD8- cells at 25 mg/kg, IG for 16 days by flow cytometric analysis. In kind it is functional, organism-based. To be noted: time 16.0 day.
Series [14] relates to MC-38. As to the kind of experiment: Antitumour activity against mouse MC38 cells implanted in C57BL6 mouse assessed increase in CD4+CD8-Tim3+ cells at 25 mg/kg, IG for 16 days by flow cytometric analysis. In kind it is functional, organism-based. The settings on record: time 16.0 day.
A further series concerns MCF7. The experiment in a line: Antiproliferative activity against human MCF7 cells assessed as reduction in […]. Type of series: functional, cell-based.
A further series concerns SK-BR-3. As to the kind of experiment: Antiproliferative activity against human SK-BR-3 cells assessed as reduction in […]. Type of series: functional, cell-based.
In a further series the test system is ZR-75-1. The experiment in a line: Antiproliferative activity against human ZR-75-1 cells assessed as reduction in […]. In kind it is functional, cell-based.
Series [15] has as its system MC-38. The experiment in a line: Antitumour activity against mouse MC38 cells implanted in C57BL6 mouse assessed decrease in CD4+CD8-PD1+ cells at 10 to 25 mg/kg, IG for 16 days by flow cytometric analysis. In kind it is functional, organism-based. To be noted: dose 10-25 mg/kg, time 16.0 day.
Series [16] relates to MC-38. As to the kind of experiment: Antitumour activity against mouse MC38 cells implanted in C57BL6 mouse assessed reduction in tumor weight at 10 to 25 mg/kg, IG for 16 days. The settings on record: dose 10-25 mg/kg, time 16.0 day. Type of series: functional, organism-based.
Series [17] has as its system MC-38. As to the kind of experiment: Antitumour activity against mouse MC38 cells implanted in C57BL6 mouse assessed increase in CD4-CD8+Tim3+ cells at 10 to 25 mg/kg, IG for 16 days by flow cytometric analysis. In kind it is functional, organism-based. The settings on record: dose 10-25 mg/kg, time 16.0 day.
Series [18] relates to MC-38. The experiment in a line: Antitumour activity against mouse MC38 cells implanted in C57BL6 mouse assessed increase in CD4+CD8-Tim3+ cells at 10 to 25 mg/kg, IG for 16 days by flow cytometric analysis. In kind it is functional, organism-based. The settings on record: dose 10-25 mg/kg, time 16.0 day.
The subject of series [19] is MC-38. The experiment in a line: Antitumour activity against mouse MC38 cells implanted in C57BL6 mouse assessed reduction in tumor size at 10 to 25 mg/kg, IG for 16 days. In kind it is functional, organism-based. The settings on record: dose 10-25 mg/kg, time 16.0 day.
For series [20], the system named is MC-38. The experiment in a line: Antitumour activity against mouse MC38 cells implanted in C57BL6 mouse assessed reduction in tumor growth at 10 to 25 mg/kg, IG for 16 days by PCNA staining based immunohistochemical analysis. Type of series: functional, organism-based. To be noted: dose 10-25 mg/kg, time 16.0 day.
For series [21], the system named is MC-38. As to the kind of experiment: Antitumour activity against mouse MC38 cells implanted in C57BL6 mouse assessed reduction in tumor growth at 10 to 25 mg/kg, IG for 16 days by Ki67 staining based immunohistochemical analysis. In kind it is functional, organism-based. To be noted: dose 10-25 mg/kg, time 16.0 day.
The test system of series [22] is MC-38. As to the kind of experiment: Antitumour activity against mouse MC38 cells implanted in C57BL6 mouse assessed increase in CD4-CD8+PD-1+ cells at 10 to 25 mg/kg, IG for 16 days by flow cytometric analysis. Type of series: functional, organism-based. To be noted: dose 10-25 mg/kg, time 16.0 day.

Take `Cc1c(COc2ccc(CN3Cc4ccccc4CC3C(=O)O)c(Oc3cc(=O)oc4ccccc34)c2)cccc1-c1ccccc1` (racemic): the outcome in the series with Jurkat [1] was Active.

Take `O=C(O)[C@@H]1Cc2ccccc2CN1Cc1ccc(OCc2cccc(-c3ccccc3)c2Br)cc1Oc1cc(=O)oc2c1ccc1ccccc12`: the outcome in the series on Jurkat [2], in the series on Jurkat [3], with Jurkat [4], in the series with Jurkat [5], with Jurkat [7] and in the series on Jurkat [8] was Active. Further, the Activity result in the series on Jurkat [6] is “Toxic”.

In the case of `COc1nc(OCc2cccc(-c3ccccc3)c2C)ccc1CNCCNC(C)=O`, the EC50 (as a rule, the concentration that produces a half-maximal response) in [9] turned out to be 11 nM. The result in the series with MC-38 [10], in the series on Jurkat [2], in the series on Jurkat [3], in the series on Jurkat [4], in the series with Jurkat [5] and with MC-38 [12] was Active. The outcome with MC-38 [13], in the series with Jurkat [7], in the series on Jurkat [8] and in the series on MC-38 [14] was Active. In the series on Jurkat [11], the Activity entry was “Non-Toxic”.

As for `CCc1cccc2c1ccc1c3occ(C)c3c(=O)oc21`, the EC50 was found to be 0.45 µg/mL with MCF7, 0.1 µg/mL in the series with SK-BR-3 and 0.18 µg/mL in the series with ZR-75-1.

With `Cc1c(COc2ccc(CN3Cc4ccccc4C[C@@H]3C(=O)O)c(Oc3cc(=O)oc4c3ccc3ccccc34)c2)cccc1-c1ccccc1`, the result in the series on MC-38 [15], with MC-38 [16], in the series on Jurkat [2], with Jurkat [3], in the series with MC-38 [17] and in the series with MC-38 [18] was Active. For the same compound, the result in the series with Jurkat [4], in the series with Jurkat [5], in the series with Jurkat [7], in the series on MC-38 [19], in the series with Jurkat [1] and in the series on Jurkat [8] was Active. In addition, in the series on MC-38 [22], the result was Active. In the series with Jurkat [6], the Activity result was “Toxic”. The TGI result in the series with MC-38 [20] and in the series with MC-38 [21] was “Active” in each case.

`Cc1c(COc2cc(OCc3cccc(C#N)c3)c(CN3C[C@@H](O)C[C@H]3C(=O)O)cc2Cl)cccc1-c1ccc2c(c1)OCCO2` had a concentration giving a half-maximal response (EC50) in series [9] of 1.4 nM.

The values above are taken from ChEMBL document CHEMBL5143556, “Molecular hybridization used to design and synthesize neo-tanshinlactone derivatives as PD-1/PD-L1 inhibitors” (Bioorg Med Chem, 2022).
